Measured values from patent US20140130191A1, “METHODS FOR TREATING IMMUNE-MEDIATED DISEASES OF THE NERVOUS SYSTEM ADMINISTERING A COMPOUND COMPRISING AGENTS THAT INHIBIT PROKINETICIN RECEPTORS ACTIVITY” (FONDAZIONE I.R.C.C.S. ISTITUTO NEUROLOGICO "CARLO BESTA", priority 2011, published 2014).

Columns and labels:
[1] = test system: relapsing-remitting PLP139-151 induced EAE in SJL mice; test: Relapsing-remitting EAE in SJL mice, preventive treatment regimen; assay type: in vivo; conditions: for Incidence (%): PLP139-151 in CFA; for severity of the disease (in words): preventive treatment, 500 μg/kg
Excerpt: (§1) The relapsing-remitting EAE model was obtained in female SJL mice by immunization with myelin proteolipid protein fragment 139-151 (PLP139-151) in complete Freund's adjuvant (CFA) [Pedotti et al., Nat Immunol 2001]. The chronic EAE model was obtained in C57BL/6 mice as mentioned before.
(§2) We used non-peptide prokineticin receptors antagonist drugs called PC1 and PC7 (whose chemical structure is shown in FIG. 1) to chronically treat the mice starting both from the time of induction of EAE (day 0; preventive treatment) and from the onset of the first symptoms of EAE (day 10-12, approximately; therapeutic treatment).
(§3) With reference to FIG. 4, the non-peptide prokineticin receptor 1 and 2 antagonist PCI was administered intraperitoneally to 8-12 week old female SJL mice in which EAE had been induced by immunization with PLP139-151 (100 μg/mouse) in CFA. The PC1 was given at a dose of 500 μg/kg (n=10). As a control, an equal amount of saline solution was injected (vehicle) (n=10). The treatments began at the time of induction of EAE (preventive treatment), or, more specifically, 4 hours after the induction of EAE. Ten mice per group were used. The graph represents the average daily disease score±standard error of the mean (SEM). A scale of 0 to 5 was used to attribute the score, where 0 is the absence of symptoms and 5 is death (as described in Pedotti et al, Nat Immunol 2001). *p<0.05 for two-tailed unpaired Student's t test vs Control. The results are representative of three consecutive experiments that gave similar results.
as §3, with “6,” for “4,”, “PC-7” for “PCI”, “PC7” for “PC1”, “μg /kg” for “μg/kg”, “(SEM).” for “(SEM). A scale of 0 to 5 was used to attribute the score, where 0 is the absence of symptoms and 5 is death (as described in Pedotti et al, Nat Immunol 2001). *p<0.05 for two-tailed unpaired Student's t test vs Control.”

splenocytes = test: T-cell response in splenocytes of mice with relapsing-remitting EAE, restimulated in vitro with PLP139-151; assay type: cell-based
Procedure: With reference to FIG. 5, 8-12 week old female SJL mice in which EAE had been induced by immunization with PLP139-151 in CFA were preventively treated (day 0) with PC1 at a dose of 500 μg/kg per day, or with vehicle as described in FIG. 4. The splenocytes were obtained 35 days after immunization with PLP139-151, and were restimulated in vitro with the antigen PLP139-151 at different concentrations or with the medium.
To assay proliferation, after 48 hours of incubation with 5% Co2 at 37° C., the cultures were loaded for 18 hours with 0.5 μCi 3H-thymidine per well. To assay cytokine production, splenocytes were restimulated in vitro with the antigen PLP139-151 at different concentrations or with the medium. The concentration of Interferon-gamma (IFN-gamma), tumour necrosis factor (TNF), Interleukine-6 (IL-6), IL-17, IL-4, and IL-10 was determined in duplicate using the ELISA technique (ELISA DuoSet, Pharmingen, CA). The results are representative of two consecutive experiments that gave similar results.

DLN cells [2] = test: T-cell response in draining lymph node cells of mice with relapsing-remitting EAE, restimulated in vitro with PLP139-151; assay type: cell-based; conditions: restimulated with PLP139-151, vs vehicle
Procedure: With reference to FIG. 8, 8-12 week old female SJL mice in which EAE had been induced by immunization with PLP139-151 in CFA were preventively treated (day 0) with PC-7 at a dose of 500 μg/kg per day or with vehicle as described in the previous experiments. The draining lymph nodes (DLN, inguinal and axillary) were obtained 7 days after immunization with PLP139-151. To assay proliferation, the DLN cells were restimulated in vitro with the antigen PLP139-151 at different concentrations, with Concanavalin A (2 μg /ml), or with the medium.
(§4) After 48 hours of incubation with 5% Co2 at 37° C., the cultures were loaded for 18 hours with 0.5 μCi 3H-thymidine per well.
To assay cytokine production, DLN cells were restimulated in vitro with the antigen PLP139-151 at different concentrations or with the medium. Data are expressed as mean cpm±SEM, ng/ml±SEM, or pg/ml±SEM.

DLN cells [3] = test: T-cell response in draining lymph node cells of mice with chronic EAE, restimulated in vitro with MOG35-55; assay type: cell-based; conditions: restimulated with MOG35-55, vs vehicle
Procedure: With reference to FIG. 11, 8-12 week old female C57B1/6 mice in which chronic EAE had been induced by immunization with MOG35-55 were preventively treated (day 0) with PC-7 at a dose of 500 μg/kg per day or with a vehicle as described in the previous experiments. The draining lymph nodes (DLN, inguinal and axillary) were obtained 10 days after immunization with MOG35-55. To assay proliferation, the DLN cells were restimulated in vitro with MOG35-55 at different concentrations, with Concanavalin A (2 μg/ml), or with the medium. Data are expressed as mean cpm±SEM, ng/ml±SEM, or pg/ml±SEM.
as §4
To assay cytokine production, DLN cells were restimulated in vitro with MOG35-55 at different concentrations or with the medium.

[4] = test system: chronic MOG35-55 induced EAE in C57B1/6 mice; test: Chronic EAE in C57B1/6 mice, preventive treatment regimen; assay type: in vivo
Excerpt: (§5) In the study conducted we verified the expression of PK-2 and its receptors PK-R1 and PK-R2 in the experimental model of chronic EAE, an experimental model of MS. The chronic EAE model was obtained in C57B1/6 mice by immunization with myelin oligodendrocyte glycoprotein peptide fragment 35-55 (MOG35-55) and PTX (Pertussis toxin) [Pedotti et al., PNAS 2003]. During chronic EAE, we observed an increase of mRNA expression of PK-2 by lymph node cells and purified CD4+ T cells in C57B1/6 mice during the disease. This increase of mRNA expression started before the onset of the disease and is less significant after its onset (FIG. 2). We observed also an important increase of the levels of the protein PK-2 in the serum of mice with MOG35-55 induced EAE (FIG. 3). This increase of PK-2 was accompanied by a dramatic reduction of PK-R2 expression in lymph node cells and CD4+T cells. […] Thus, the couple PK-2/PK-R1 seemed to play an important role during EAE, the experimental model of MS.
as §2
With reference to FIG. 9, the non-peptide prokineticin receptor 1 and 2 antagonist PC7 was administered intraperitoneally to 8-12 week old female C57B1/6 mice in which chronic EAE had been induced by immunization with MOG35-55 (100 μg/mouse) and PTX (400 ng/mouse). The PC-7 was given at a dose of 500 μg/kg (n=10). As a control, an equal amount of saline solution was injected (vehicle) (n=10). The treatments began at the time of induction of EAE (preventive treatment), or, more specifically, 4 hours after the induction of EAE. Ten mice per group were used. The graph represents the average daily disease score±standard error of the mean (SEM). The results are representative of three consecutive experiments that gave similar results.

[5] = test system: relapsing-remitting PLP139-151 induced EAE in SJL mice; test: Relapsing-remitting EAE in SJL mice, therapeutic treatment regimen; assay type: in vivo
Excerpt: as §1, §2
With reference to FIG. 7, the non-peptide prokineticin receptor 1 and 2 antagonist PC-7 was administered intraperitoneally to 8-12 week old female SJL mice in which EAE had been induced by immunization with PLP139-151 (100 μg/mouse) in CFA. The PC-7 was given at a dose of 500 μg/kg (n=10). As a control, an equal amount of saline solution was injected (control) (n=10). The treatments began on the appearance of the first symptoms of the disease (Day 11). Ten mice per group were used. The graph represents the average daily disease score±standard error of the mean (SEM). The results are representative of three consecutive experiments that gave similar results.

[6] = test system: chronic MOG35-55 induced EAE in C57B1/6 mice; test: Chronic EAE in C57B1/6 mice, therapeutic treatment regimen; assay type: in vivo
Excerpt: as §5, §2
With reference to FIG. 10, the non-peptide prokineticin receptor 1 and 2 antagonist PC-7 was administered intraperitoneally to 8-12 week old female C57B1/6 mice in which chronic EAE had been induced by immunization with MOG35-55 (100 μg/mouse) and PTX (400 ng/mouse). The PC-7 was given at a dose of 500 μg /kg (n=10). As a control, an equal amount of saline solution was injected (vehicle) (n=10). The treatments began on the onset of the first symptoms of the disease (day 12). Ten mice per group were used. The graph represents the average daily disease score±standard error of the mean (SEM). The results are representative of two consecutive experiments that gave similar results.

[7] = SJL mice, 500 μg/kg i.p., preventive, Table 1
[8] = splenocytes, restimulated with PLP139-151, ELISA, vs vehicle
[9] = SJL mice, 500 μg/kg i.p., preventive, Table 2
[10] = DLN cells, relapsing-remitting EAE
[11] = C57B1/6 mice, 500 μg/kg i.p., preventive
[12] = SJL mice, 500 μg/kg i.p. from first symptoms (Day 11), therapeutic
[13] = C57B1/6 mice, 500 μg/kg i.p. from first symptoms (day 12), therapeutic

CCc1ccc(Cn2c(=O)nc(NCCNC(=N)N)n(Cc3ccc(OC)cc3)c2=O)cc1 [PC1]
Cumulative disease score [1, 7]: 24.8 ± 9.0 *
Onset of disease (Day) [1, 7]: 12.4 ± 1.0 * Day
Peak of disease Severity ([1]; SJL mice, 500 μg/kg i.p., preventive, score scale 0 to 5, Table 1): 1.7 ± 0.4 *
Incidence (%) ([1]; SJL mice, 500 μg/kg intraperitoneally from induction of EAE (preventive), Table 1): 70% (7/10)
severity of the disease (in words) ([1]; relapsing-remitting EAE): reduction in the severity of the disease
onset of the disease (in words) ([1]; relapsing-remitting EAE, treated from the time of induction of EAE): delay in the onset of the disease
peptide-specific T cells proliferation (splenocytes; splenocytes 35 days after immunization, mice treated 500 μg/kg per day preventively, restimulated with PLP139-151, vs vehicle): reduction
production of IFN-gamma (splenocytes; [8]): reduction
production of IL-4 (splenocytes; [8]): increasing
production of TNF (splenocytes; [8]): reduction

COc1ccc(Cn2c(NCCNC(=N)N)nc(=O)n(Cc3ccc(F)cc3)c2=O)cc1 [PC7]
Cumulative disease score [1, 9]: 21.2 ± 5.1 *
Onset of disease (Day) [1, 9]: 11.4 ± 0.1 * Day
Peak in disease Severity [1, 9]: 2.2 ± 0.3 *
Incidence (%) ([1]; SJL mice, 500 μg/kg i.p. from induction of EAE (preventive), Table 2): 90% (9/10)
severity of the disease (in words) ([1]; relapsing-remitting EAE): significantly reduces the severity of the disease
proliferation of lymph node cells (DLN cells [2]; DLN cells 7 days after immunization, mice treated 500 μg/kg per day preventively): reduced proliferation
levels of IL-17A (DLN cells [2]; [10]): slight reduction
levels of interleukin IL-6 (DLN cells [2]; [10]): increase
levels of interleukin IL-10 (DLN cells [2]; [10]): increase
production of IFN (DLN cells [2]; [10]): significantly lower
production of TNF (DLN cells [2]; [10]): significantly lower
peptide-specific T cells proliferation (DLN cells [3]; DLN cells 10 days after immunization, mice treated 500 μg/kg per day preventively): reduction
production of IFN-gamma (DLN cells [3]; DLN cells, chronic EAE): reduction
production of IL-10 (DLN cells [3]; DLN cells, chronic EAE): increasing
production of IL-17 (DLN cells [3]; DLN cells, chronic EAE): reduction
production of TNF (DLN cells [3]; DLN cells, chronic EAE): reduction
Cumulative disease score [4, 11]: 41.1 ± 11.8
Onset of disease [4, 11]: 16.8 ± 1.7 days
Peak in disease Severity [4, 11]: 2.5 ± 0.5
Incidence (%) ([4]; C57B1/6 mice, MOG35-55 and PTX, 500 μg/kg i.p. from induction of EAE (preventive)): 90% (9/10)
severity of the disease (in words) ([4]; chronic EAE, preventive treatment): significant reduction in the severity of the disease
Cumulative disease score [5, 12]: 42.3 ± 7.5
Incidence (%) [5, 12]: 100% (10/10)
Peak in disease Severity [5, 12]: 2.6 ± 0.3
severity of the disease (in words) ([5]; relapsing-remitting EAE, therapeutic treatment, 500 μg/kg): significantly reduces the severity of the disease
Cumulative disease score [6, 13]: 50.9 ± 11.8
Incidence (%) [6, 13]: 100% (10/10)
Peak in disease Severity [6, 13]: 3.3 ± 0.3
severity of the disease (in words) ([6]; chronic EAE, therapeutic treatment, 500 μg/Kg): significant reduction in the severity of the disease
